Measurements: patent US6794397B2, “Substituted nicotinamides and analogs as activators of caspases and inducers of apoptosis and the use thereof” (Cytovia, Inc., priority 2000, dated 2004)
“Also recorded” adds a separate entry of the source. Read-outs that look alike come from different tables or passages of the source.

What was measured:
T47D [1] = assay: Cell cycle arrest and apoptosis in T47D cells (propidium iodide flow cytometry); format: cell-based, Human; details: 48 h
Protocol: T47D, a breast cancer cell line, was maintained and harvested as described in Example 71. […] As a control, cells were also incubated with equivalent amount of solvent as control (DMSO). Cells were harvested at 1,200 rpm and washed twice with 5 mM EDTA/PBS. Cells were then resuspended in 300 μl EDTA/PBS and 700 μl of 100% ethanol, vortexed and incubated at room temperature for 1 h. Samples were spun down at 1,200 rpm for 5 min and the supernatant was removed. A solution containing 100 μg/ml of propidium iodide and 1 mg/ml of RNAse A (fresh) was added to the samples and incubated for 1 h at room temperature. Samples were then transferred to 12×75 mm polystyrene tubes and analyzed on a flow cytometer. All flow cytometry analyses were performed on FACScalibur (Becton Dickinson) using Cell Quest analysis software. On the x-axis is plotted the fluorescence intensity and on the y-axis is plotted the number of cells with that fluorescence intensity. […] An increase in the sub-diploid DNA content of cells (marker M1 region, FIG. 3) is also seen to increase from 2% to 25% with compound treatment. The sub-diploid amount of DNA (M1) is indicative of apoptotic cells which have undergone DNA degradation or fragmentation.

HeLa cells = assay: Inhibition of proliferation / colony formation of HeLa cells; format: cell-based; details: Homo sapiens, 48 hr treatment, colonies counted after 5-7 days
Protocol: HeLa cells were grown according to media component mixtures designated by American Type Culture Collection +10% FCS (Invitrogen Corporation, Life Technologies Division), in a 5% CO2 −95% humidity incubator at 37° C. In a well of a 96 well plate, 30,000 cells were seeded and treated with compound at the indicated concentrations for 48 hr in a 5% CO2−95% humidity incubator at 37° C. Control wells were treated with the same amount of solvent (DMSO) as the compound samples. After the indicated treatment time, the supernatant was removed to a sterile culture tube and the wells washed with phosphate buffered saline, and the adherent cells trypsinized for 5 min. The trypsinzed cells were added to the culture supernatant, cells were collected (1,200 rpm, 10 min), washed with phosphate buffered saline, and resuspended in fresh media. The cells were counted for trypan blue negative cells, and the cells were diluted with fresh media to 1,000 cells/ml. To a well of a 24-well plate, 0.1 ml of the cell suspension was added along with 1 ml of fresh media (cell suspensions were passed through a 22G needle several times just before plating to form single cell suspensions). […] Colonies are counted when the sizes reached greater than 50 cells per colony. […] Colonies are rinsed with water and the colonies counted and the fraction surviving expressed as the percentage of the number of control colonies.

ZR75-1 = assay: Caspase cascade activation assay (N-(Ac-DEVD)-N'-ethoxycarbonyl-R110 fluorogenic substrate) in ZR75-1 cells; format: cell-based, Human; details: for EC50: read-out: EC50 (nM) caspase potency; for Caspase activity Ratio: ratio of net RFU of test compound to control, 0.16 to 10 μM final
Protocol: (§1) Human breast cancer cell lines T47D and ZR75-1 were grown according to media component mixtures designated by American Type Culture Collection +10% FCS (Invitrogen Corporation, Life Technologies Division), in a 5% CO2 −95% humidity incubator at 37° C. T47D and ZR75-1 cells were maintained at a cell density between 30 and 80% confluency at a cell density of 0.1 to 0.6×10^6 cells/ml. Cells were harvested at 600xg and resuspended at 0.65×10^6 cells/ml into appropriate media +10% FCS. An aliquot of 45 μl of cells was added to a well of a 96-well microtiter plate containing 5 μl of a 10% DMSO in RPMI-1640 media solution containing 1.6 to 100 μM of N-(4-methoxy-2-nitrophenyl)-3-pyridinecarboxamide or other test compound (0.16 to 10 μM final). An aliquot of 45 μl of cells was added to a well of a 96-well microtiter plate containing 5 μl of a 10% DMSO in RPMI-1640 media solution without test compound as the control sample. The samples were mixed by agitation and then incubated at 37 C. for 24 h in a 5% CO2 −95% humidity incubator. After incubation, the samples were removed from the incubator and 50 μl of a solution containing 20 μM of N-(Ac-DEVD)-N′-ethoxycarbonyl-R110 (SEQ ID NO: 1) fluorogenic substrate (Cytovia, Inc.; WO99/18856), 20% sucrose (Sigma), 20 mM DTT (Sigma), 200 mM NaCl (Sigma), 40 mM Na PIPES buffer pH 7.2 (Sigma), and 500 μg/ml lysolecithin (Calbiochem) was added. The samples were mixed by agitation and incubated at room temperature. Using a fluorescent plate reader (Model 1420 Wallac Instruments), an initial reading (T=0) was made approximately 1-2 min after addition of the substrate solution, employing excitation at 485 nm and emission at 530 nm, to determine the background fluorescence of the control sample. After the 3 h incubation, the samples were read for fluorescence as above (T=3 h).
(§2) The Relative Fluorescence Unit values (RFU) were used to calculate the sample readings as follows:
(§3) RFU(T=3h)−Control RFU(T=0)=Net RFU(T=3h).
(§4) The activity of caspase cascade activation was determined by the ratio of the net RFU value for N-(4-methoxy-2-nitrophenyl)-3-pyridinecarboxamide or other test compound to that of control samples. The EC50 (nM) was determined by a sigmoidal dose-response calculation (Prism 2.0, GraphPad Software Inc.).

T47D [2] = assay: Caspase cascade activation assay (N-(Ac-DEVD)-N'-ethoxycarbonyl-R110 fluorogenic substrate) in T47D cells; format: cell-based, Human; details: 24 h incubation; for EC50: read-out: EC50 (nM) caspase potency; for Caspase activity Ratio: ratio of net RFU of test compound to control, 0.16 to 10 μM final
Protocol: as §1, §2, §3, §4

Jurkat cells [3] = assay: Nuclear fragmentation in Jurkat cells (Syto16 staining); format: cell-based; details: 5 μM, 24 h, Syto16 stain
Protocol: The ability of N-(4-methoxy-2-nitrophenyl)-3-pyridinecarboxamide to induce nuclear fragmentation was tested by treatment of Jurkat cells with the test compound followed by staining of the nucleus with Sytol6, a fluorescent DNA dye (Molecular Probes, Eugene, Oreg.). The nuclei of Jurkat cells treated with vehicle control (DMSO) are seen to be round with dispersed chromatin that is moderately stained with Sytol6 (FIG. 1A).

Jurkat cells [4] = assay: Mitotic arrest in Jurkat cells (mitotic figures counted); format: cell-based; details: 0.02 μM to 5 μM, 6 h
Protocol: Jurkat cells were incubated with a range of concentrations of N-(4-methoxy-2-nitrophenyl)-3-pyridinecarboxamide (0.02 μM to 5 μM) for 6 h under normal growth conditions; control cultures were treated with DMSO vehicle. The cells were then treated for 20 min. with 800 nM Syto 16 (Molecular Probes, Eugene, OR). Cytospin preparations were then prepared and the samples were viewed by fluorescent microscopy using a fluorescein filter set. For each concentration of test compound, the number of mitotic figures were counted and expressed as a percentage of the total number of cells. Three fields from each condition were evaluated and the mean and SEM were calculated and plotted as a function of drug concentration (FIG. 2).

[5] = Homo sapiens, ZR-75-1, 24 h incubation, sigmoidal dose-response
[6] = Homo sapiens, sigmoidal dose-response
[7] = 24 h incubation, sigmoidal dose-response

SMILES | G1 (M2) cells (T47D [1]; 1 μM) | G2/M phase (M4) cells (T47D [1]; 1 μM) | sub-G1 / sub-diploid DNA content of cells (M1) (T47D [1]; 1 μM) | IC50 (HeLa cells) [nM] | EC50 (ZR75-1; [5]) [nM] | Caspase activity Ratio (ZR75-1; 24 h incubation) | EC50 (T47D [2]; [6]) [nM] | Caspase activity Ratio (T47D [2]) | EC50 (nM) caspase potency (ZR75-1; [7]) | EC50 (nM) caspase potency (T47D [2]; sigmoidal dose-response) | G1 (M2) cells (T47D [1]; 10 μM) | G2/M DNA content (M4) cells (T47D [1]; 10 μM) | sub-diploid DNA content of cells (M1), in words (T47D [1]; 10 μM) | sub-diploid DNA content of cells (M1) (T47D [1]; 10 μM, control 2%) [%] | Nuclear fragmentation (nuclear morphology) (Jurkat cells [3]) | Mitotic arrest (Jurkat cells [4]) | EC50 (ZR75-1; [7]) [nM] | EC50 (T47D [2]; sigmoidal dose-response) [nM]
CCOc1ccc(NC(=O)c2ccc(Cl)nc2)c([N+](=O)[O-])c1 [Example 8, 6-Chloro-N-(4-ethoxy-2-nitrophenyl)-3-pyridinecarboxamide] | a reduction in the G1(M2) | accumulation of T47D cells in the G2/M phase; also recorded: an increase in the G2/M (M4) | increase substantially over control cells | ~100 | 77 | 6.3 | 153 | 5.0 | – | – | – | – | – | – | – | – | – | –
O=C(Nc1ccccc1[N+](=O)[O-])c1ccc(Cl)nc1 [Example 10, 6-Chloro-N-(2-nitrophenyl)-3-pyridinecarboxamide] | – | – | – | – | – | Inactive | – | Inactive | Inactive | Inactive | – | – | – | – | – | – | – | –
COc1ccc(NC(=O)c2cccnc2)c([N+](=O)[O-])c1 [Example 29, N-(4-Methoxy-2-nitrophenyl)-3-pyridinecarboxamide] | – | – | – | – | 1000 | 6.4 | 1800 | 5.8 | – | – | a reduction in the G1(M2) | increase in G2/M DNA content; also recorded: an increase in the G2/M (M4) | increase | 25 | shrunken and fragmented nuclei | effective inducer of mitotic arrest; also recorded: increasing percent of mitotic arrest with increasing drug concentration | – | –
O=C(Nc1ccc(OC(F)(F)F)cc1[N+](=O)[O-])c1ccc(Cl)nc1 [Example 23, 6-Chloro-N-(2-nitro-4-tifluoromethoxyphenyl)-3-pyridinecarboxamide] | – | – | – | – | – | 9.9 | – | 7.2 | – | – | – | – | – | – | – | – | 171 | 608
